These are literature values, as cited in patent US7777053B2, “Efficient process for production of carvedilol phosphate” (Wanbury Limited, priority 2007, dated 2010).

Counter-ions that a name gives are not always drawn. Like-named read-outs stand apart in the source and are kept apart here.

For the compound `COc1ccccc1OCCNCC(O)COc1cccc2[nH]c3ccccc3c12` (stereo not shown) [Carvedilol, 1-(9H-carbazol-4yloxy)-3-[[2-(2-methoxyphenoxy)-ethyl]amino]-propan-2-ol], the solubility (neutral or alkaline media, above pH of 9.0) was less than 1 µg/mL. The saturation solubility result reads like this: (pH=5, room temperature) “about 100 μg/ml”; (pH=7, room temperature) “about 23 μg/ml”.

`COc1ccccc1OCCNCC(O)COc1cccc2[nH]c3ccccc3c12` (stereo not shown) [carvedilol phosphate, phosphate salts of 1-(9H-carbazol-4yloxy)-3-[[2-(2-methoxyphenoxy)ethyl]amino]-propan-2-ol]: the aqueous solubility result (as described in US 2005/0277689 A1, compared with carvedilol) is “much higher aqueous solubility”.
